Results from patent US12312332B2 (Merck Sharp & Dohme LLC., priority 2019, dated 2025).

Target: T1, human OX2R (Homo sapiens, UniProt O43614)
T1 construct: expressed in transfected cells; host or cells: Chinese hamster ovary (CHO) cells, kept under G418 selection
T1 sequence (O43614 1-444): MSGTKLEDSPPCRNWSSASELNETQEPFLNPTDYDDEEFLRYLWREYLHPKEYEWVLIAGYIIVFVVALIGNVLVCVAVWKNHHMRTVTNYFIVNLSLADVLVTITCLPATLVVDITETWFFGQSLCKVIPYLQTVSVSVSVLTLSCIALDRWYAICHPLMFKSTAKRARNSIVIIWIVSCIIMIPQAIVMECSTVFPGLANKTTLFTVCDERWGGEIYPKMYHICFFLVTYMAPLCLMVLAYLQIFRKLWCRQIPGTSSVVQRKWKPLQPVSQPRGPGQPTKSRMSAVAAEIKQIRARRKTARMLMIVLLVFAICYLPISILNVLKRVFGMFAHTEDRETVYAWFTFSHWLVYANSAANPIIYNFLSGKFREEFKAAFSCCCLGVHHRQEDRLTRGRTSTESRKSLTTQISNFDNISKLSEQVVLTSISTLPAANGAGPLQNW
Test: IPOne (IP-One) orexin receptor agonist assay in CHO cells expressing human OX2R
Type: cell-based
Conditions: for EC50: CHO cells expressing human OX2R, IP-One detection, 2 hours incubation, four parameter logistic fit, read-out: OX2R Potency, EC50; for % max agonist effect (Emax): human OX2R, percentage of sample raw value/mean max effect (reference compound at 1 uM with 100% activity)

Row | EC50 [nM] | % max agonist effect (Emax) [%] | SMILES
1 | 0.76 | 101.4 | CS(=O)(=O)N[C@H]1CCN(c2ncc(Cl)c(O)c2F)[C@H]1CO[C@H]1CC[C@@H](c2cccc(F)c2)CC1 [Example 98, N-((2R,3S)-1-(5-chloro-3-fluoro-4-hydroxypyridin-2-yl)-2-((((CIS)-4-(3-fluorophenyl)cyclohexyl)oxy)methyl)pyrrolidin-3-yl)methanesulfonamide]
2 | 347 | 99.8 | CS(=O)(=O)N[C@H]1CCN(c2ccsc2)[C@H]1CO[C@H]1CC[C@@H](c2ccccc2)CC1 [Example 19, N-((2R,3S)-2-((((CIS)-4-phenylcyclohexyl)oxy)methyl)-1-(thiophen-3-yl)pyrrolidin-3-yl)methanesulfonamide]
3 | 0.8 | 100.4 | CS(=O)(=O)N[C@H]1CCN(c2cc(O)ccn2)[C@H]1CO[C@H]1CC[C@@H](c2ccccc2)CC1 [Example 75, N-((2R,3S)-1-(4-hydroxypyridin-2-yl)-2-((((CIS)-4-phenylcyclohexyl)oxy)methyl)pyrrolidin-3-yl)methanesulfonamide]
4 | 33.2 | 100.2 | Cn1ccc(N2CC[C@H](NS(C)(=O)=O)[C@@H]2CO[C@H]2CC[C@@H](c3ccccc3)CC2)cc1=O [Example 118, N-((2R,3S)-1-(1-methyl-2-oxo-1,2-dihydropyridin-4-yl)-2-((((CIS)-4-phenylcyclohexyl)oxy)methyl)pyrrolidin-3-yl)methanesulfonamide]
5 | 164 | 100.6 | CS(=O)(=O)N[C@H]1CCN(c2ncccc2C#N)[C@H]1CO[C@H]1CC[C@@H](c2ccccc2)CC1 [Example 136, N-((2R,3S)-1-(3-cyanopyridin-2-yl)-2-((((CIS)-4-phenylcyclohexyl)oxy)methyl)pyrrolidin-3-yl)methanesulfonamide]
6 | 1700 | 98.0 | Cc1sc(N2CC[C@H](NS(C)(=O)=O)[C@@H]2CO[C@H]2CC[C@@H](c3ccccc3)CC2)nc1Br [Example 106, N-((2R,3S)-1-(4-bromo-5-methylthiazol-2-yl)-2-((((CIS)-4-phenylcyclohexyl)oxy)methyl)pyrrolidin-3-yl)methanesulfonamide]
7 | 1820 | 95.6 | CS(=O)(=O)N[C@H]1CCN(c2cc(C(F)F)ccn2)[C@H]1CO[C@H]1CC[C@@H](c2ccccc2)CC1 [Example 143, N-((2R,3S)-1-(4-(difluoromethyl)pyridin-2-yl)-2-((((CIS)-4-phenylcyclohexyl)oxy)methyl)pyrrolidin-3-yl)methanesulfonamide]
8 | > 10000 | 15.8 | CS(=O)(=O)N[C@H]1CCN(c2cc(C(F)F)cc(C(F)F)n2)[C@H]1CO[C@H]1CC[C@@H](c2ccccc2)CC1 [Example 142, N-((2R,3S)-1-(4,6-bis(difluoromethyl)pyridin-2-yl)-2-((((CIS)-4-phenylcyclohexyl)oxy)methyl)pyrrolidin-3-yl)methanesulfonamide]
9 | > 10000 | 43.4 | CS(=O)(=O)N[C@H]1CCN(c2cc(C(F)(F)F)ncn2)[C@H]1CO[C@H]1CC[C@@H](c2ccccc2)CC1 [Example 46, N-((2R,3S)-2-((((CIS)-4-phenylcyclohexyl)oxy)methyl)-1-(6-(trifluoromethyl)pyrimidin-4-yl)pyrrolidin-3-yl)methanesulfonamide]
10 | 52.3 | 100.5 | CS(=O)(=O)N[C@H]1CCN(c2cc[nH]c(=O)c2)[C@H]1CO[C@H]1CC[C@@H](c2ccccc2)CC1 [Example 154, N-((2R,3S)-1-(2-oxo-1,2-dihydropyridin-4-yl)-2-((((CIS)-4-phenylcyclohexyl)oxy)methyl)pyrrolidin-3-yl)methanesulfonamide]
11 | 1120 | 97.4 | CS(=O)(=O)N[C@H]1CCN(c2nc(Br)cs2)[C@H]1CO[C@H]1CC[C@@H](c2ccccc2)CC1 [Example 108, N-((2R,3S)-1-(4-bromothiazol-2-yl)-2-((((CIS)-4-phenylcyclohexyl)oxy)methyl)pyrrolidin-3-yl)methanesulfonamide]
12 | 9 | 101.4 | CS(=O)(=O)N[C@H]1CCN(c2cncc(O)c2)[C@H]1CO[C@H]1CC[C@@H](c2ccccc2)CC1 [Example 47, N-((2R,3S)-1-(5-hydroxypyridin-3-yl)-2-((((CIS)-4-phenylcyclohexyl)oxy)methyl)pyrrolidin-3-yl)methanesulfonamide]

The remaining lines, values behind:

Row | SMILES | EC50 [nM] | % max agonist effect (Emax) [%]
13 | CS(=O)(=O)N[C@H]1CCN(c2ccc(O)cn2)[C@H]1CO[C@H]1CC[C@@H](c2ccccc2)CC1 [Example 68, N-((2R,3S)-1-(5-hydroxypyridin-2-yl)-2-((((CIS)-4-phenylcyclohexyl)oxy)methyl)pyrrolidin-3-yl)methanesulfonamide] | 173 | 99.1
14 | Cc1ccnc(N2CC[C@H](NS(C)(=O)=O)[C@@H]2CO[C@H]2CC[C@@H](c3ccccc3)CC2)n1 [Example 67, N-((2R,3S)-1-(4-methylpyrimidin-2-yl)-2-((((CIS)-4-phenylcyclohexyl)oxy)methyl)pyrrolidin-3-yl)methanesulfonamide] | 2180 | 92.6
15 | CS(=O)(=O)N[C@H]1CCN(c2occc2C#N)[C@H]1CO[C@H]1CC[C@@H](c2ccccc2)CC1 [Example 39, N-((2R,3 S)-1-(3-cyanofuran-2-yl)-2-((((CIS)-4-phenylcyclohexyl)oxy)methyl)pyrrolidin-3-yl)methanesulfonamide] | 613 | 98.4
16 | CS(=O)(=O)N[C@H]1CCN(c2cnccc2O)[C@H]1CO[C@H]1CC[C@@H](c2ccccc2)CC1 [Example 122, N-((2R,3S)-1-(4-hydroxypyridin-3-yl)-2-((((CIS)-4-phenylcyclohexyl)oxy)methyl)pyrrolidin-3-yl)methanesulfonamide] | 38.3 | 101
17 | Cc1sc(N2CC[C@H](NS(C)(=O)=O)[C@@H]2CO[C@H]2CC[C@@H](c3ccccc3)CC2)nc1O [Example 105, N-((2R,3S)-1-(4-hydroxy-5-methylthiazol-2-yl)-2-((((CIS)-4-phenylcyclohexyl)oxy)methyl)pyrrolidin-3-yl)methanesulfonamide] | 703 | 97.9
18 | Cn1cc(N2CC[C@H](NS(C)(=O)=O)[C@@H]2CO[C@H]2CC[C@@H](c3ccccc3)CC2)ccc1=O [Example 112, N-((2R,3S)-1-(1-methyl-6-oxo-1,6-dihydropyridin-3-yl)-2-((((CIS)-4-phenylcyclohexyl)oxy)methyl)pyrrolidin-3-yl)methanesulfonamide] | 4650 | 88.2
19 | CS(=O)(=O)N[C@H]1CCN(c2cncc(C(F)(F)F)c2)[C@H]1CO[C@H]1CC[C@@H](c2ccccc2)CC1 [Example 50, N-((2R,3S)-2-((((CIS)-4-phenylcyclohexyl)oxy)methyl)-1-(5-(trifluoromethyl)pyridin-3-yl)pyrrolidin-3-yl)methanesulfonamide] | 944 | 95.1
20 | COc1ccncc1N1CC[C@H](NS(C)(=O)=O)[C@@H]1CO[C@H]1CC[C@@H](c2ccccc2)CC1 [Example 51, N-((2R,3S)-1-(4-methoxypyridin-3-yl)-2-((((CIS)-4-phenylcyclohexyl)oxy)methyl)pyrrolidin-3-yl)methanesulfonamide] | 14.2 | 100.3
21 | Cn1cc(N2CC[C@H](NS(C)(=O)=O)[C@@H]2CO[C@H]2CC[C@@H](c3ccccc3)CC2)cn1 [Example 40, N-((2R,3S)-1-(1-methyl-1H-pyrazol-4-yl)-2-((((CIS)-4-phenylcyclohexyl)oxy)methyl)pyrrolidin-3-yl)methanesulfonamide] | 431 | 98.8
22 | COc1cncc(N2CC[C@H](NS(C)(=O)=O)[C@@H]2CO[C@H]2CC[C@@H](c3ccccc3)CC2)c1C [Example 128, N-((2R,3S)-1-(5-methoxy-4-methylpyridin-3-yl)-2-((((CIS)-4-phenylcyclohexyl)oxy)methyl)pyrrolidin-3-yl)methanesulfonamide] | > 10000 | 50.4
23 | COc1cc(N2CC[C@H](NS(C)(=O)=O)[C@@H]2CO[C@H]2CC[C@@H](c3ccccc3)CC2)cnc1OC [Example 54, N-((2R,3S)-1-(5,6-dimethoxypyridin-3-yl)-2-((((CIS)-4-phenylcyclohexyl)oxy)methyl)pyrrolidin-3-yl)methanesulfonamide] | 782 | 98.9
24 | CS(=O)(=O)N[C@H]1CCN(c2ccc(OC(F)F)cn2)[C@H]1CO[C@H]1CC[C@@H](c2ccccc2)CC1 [Example 35, N-((2R,3S)-1-(5-(difluoromethoxy)pyridin-2-yl)-2-((((CIS)-4-phenylcyclohexyl)oxy)methyl)pyrrolidin-3-yl)methanesulfonamide] | 176 | 104.3
25 | CS(=O)(=O)N[C@H]1CCN(c2cccc(C#N)c2)[C@H]1CO[C@H]1CC[C@@H](c2ccccc2)CC1 [Example 147, N-((2R,3S)-1-(3-cyanophenyl)-2-((((CIS)-4-phenylcyclohexyl)oxy)methyl)pyrrolidin-3-yl)methanesulfonamide] | > 10000 | 74.1
